# Data from patent publication US20260109707A1, “HETEROBIFUNCTIONAL COMPOUNDS AND METHODS OF TREATING DISEASE” (Halda Therapeutics OpCo. Inc., priority 2022, published 2026).
# Where two headings read alike, the source gives them in different places.
# What was measured:
# [1] = test system: T47D cells; experiment: Cellular growth inhibition assay for T47D cells (CellTiter-Glo, 72 hours); type: cell-based, human; settings: 72 hours treatment
# Outline: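 Growth inhibition as GI50, fitted with four parameters to CellTiter-Glo luminescence after 72 h of compound exposure (0.5% DMSO). Cells were T47D, grown in insulin-supplemented (0.2 units/mL) DMEM with 10% FBS and treated one day post-seeding.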
# [2] = test system: T-Rex 293 cell line SC3 cells lacking increased expression of androgen receptor protein; experiment: Cellular growth inhibition assay, T-Rex 293 SC3 cells without doxycycline (CellTiter-Glo, 72 hours); type: cell-based; settings: T-Rex 293 cell line SC3 cells not exposed to doxycycline (lacking increased androgen receptor expression)
# Outline: (§1)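 Growth inhibition is measured in an inducible AR-expressing T-Rex 293 clone, SC3, cultured with or without 10 ng/mL doxycycline in hormone-depleted medium. Test compounds are applied for 72 hours. GI50 values derive from CellTiter-Glo 2.0 signal fitted by four-parameter regression.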
# [3] = test system: VCaP cells; experiment: Cellular growth inhibition assay for VCaP cells (CellTiter-Glo, 72 hours); type: cell-based, human
# Outline: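 Luminescent viability signal after 72 h of compound exposure gave GI50 values by four-parameter nonlinear regression. Compounds were added in 0.5% DMSO to cells plated 24 h earlier at 5000/well in DMEM containing 10% FBS.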
# [4] = test system: T-Rex 293 cell line SC3 cells having increased expression of androgen receptor protein due to exposure to doxycycline; experiment: Cellular growth inhibition assay, T-Rex 293 SC3 cells with doxycycline (CellTiter-Glo, 72 hours); type: cell-based; settings: T-Rex 293 SC3 cells with increased androgen receptor expression due to doxycycline (10 ng/mL)
# Outline: as §1
Structure (SMILES),"GI50 ([1]; Homo sapiens, T47D, 72 h)",GI50 ([2]; 72 h),"GI50 ([3]; Homo sapiens, VCaP, 72 h)",GI50 ([4]; 72 h),GI50 [2],GI50 [3],GI50 [4],GI50 [1]
Cc1sc2c(c1C)C(c1ccc(C3CN(C4CCN(c5ccc(C(=O)N[C@H]6CC[C@H](Oc7ccc(C#N)c(Cl)c7)CC6)nn5)CC4)C3)cc1)=N[C@@H](Cc1ncco1)c1nnc(C)n1-2 [I-212],< 500 nM,< 500 nM,< 500 nM,< 500 nM,–,–,–,–
Cc1sc2c(c1C)C(c1ccc(CC[C@H]3CC[C@@]4(CCCN(c5ccc(C(=O)N[C@H]6CC[C@H](Oc7ccc(C#N)c(Cl)c7)CC6)nn5)C4)C3)cc1)=N[C@@H](Cc1ncco1)c1nnc(C)n1-2 [I-213],> 3000 nM,> 3000 nM,> 3000 nM,> 3000 nM,–,–,–,–
Cc1sc2c(c1C)C(c1ccc(CC[C@@H]3CC[C@@]4(CCCN(c5ccc(C(=O)N[C@H]6CC[C@H](Oc7ccc(C#N)c(Cl)c7)CC6)nn5)C4)C3)cc1)=N[C@@H](Cc1ncco1)c1nnc(C)n1-2 [I-214],> 3000 nM,> 3000 nM,> 3000 nM,> 3000 nM,–,–,–,–
Cc1sc2c(c1C)C(c1ccc(CC[C@H]3CC[C@@]4(CCCN(c5ccc(C(=O)N[C@H]6CC[C@H](Oc7ccc(C#N)c(Cl)c7)CC6)nn5)C4)C3)cc1)=N[C@H](Cc1ncco1)c1nnc(C)n1-2 [I-215],< 500 nM,< 500 nM,< 500 nM,< 500 nM,–,–,–,–
Cc1sc2c(c1C)C(c1ccc(CC[C@@H]3CC[C@@]4(CCCN(c5ccc(C(=O)N[C@H]6CC[C@H](Oc7ccc(C#N)c(Cl)c7)CC6)nn5)C4)C3)cc1)=N[C@H](Cc1ncco1)c1nnc(C)n1-2 [I-216],< 500 nM,< 500 nM,< 500 nM,< 500 nM,–,–,–,–
Cc1sc2c(c1C)C(c1ccc(O[C@H]3CCCN(c4ccc(C(=O)N[C@H]5CC[C@H](Oc6ccc(C#N)c(Cl)c6)CC5)nn4)C3)cc1)=N[C@@H](Cc1ncco1)c1nnc(C)n1-2 [I-217],> 3000 nM,< 500 nM,1500 to 3000 nM,< 500 nM,–,–,–,–
Cc1sc2c(c1C)C(c1ccc(OC[C@@H]3CCCN(c4ccc(C(=O)N[C@H]5CC[C@H](Oc6ccc(C#N)c(Cl)c6)CC5)nn4)C3)cc1)=N[C@@H](Cc1ncco1)c1nnc(C)n1-2 [I-218],500 to 1500 nM,< 500 nM,< 500 nM,< 500 nM,–,–,–,–
Cc1sc2c(c1C)C(c1ccc(OC[C@H]3CCCN(c4ccc(C(=O)N[C@H]5CC[C@H](Oc6ccc(C#N)c(Cl)c6)CC5)nn4)C3)cc1)=N[C@@H](Cc1ncco1)c1nnc(C)n1-2 [I-219],1500 to 3000 nM,1500 to 3000 nM,500 to 1500 nM,< 500 nM,–,–,–,–
Cc1sc2c(c1C)C(c1ccc(O[C@H]3C[C@@]4(CCCN(c5ccc(C(=O)N[C@H]6CC[C@H](Oc7ccc(C#N)c(Cl)c7)CC6)nn5)C4)C3)nc1)=N[C@@H](Cc1ncco1)c1nnc(C)n1-2 [I-220],500 to 1500 nM,> 3000 nM,500 to 1500 nM,< 500 nM,–,–,–,–
Cc1sc2c(c1C)C(c1ccc(O[C@H]3C[C@@]4(CCCN(c5ccc(C(=O)N[C@H]6CC[C@H](Oc7ccc(C#N)c(Cl)c7)CC6)nn5)C4)C3)nc1)=N[C@H](Cc1ncco1)c1nnc(C)n1-2 [I-221],> 3000 nM,> 3000 nM,> 3000 nM,< 500 nM,–,–,–,–
Cc1sc2c(c1C)C(c1ccc(CCN3CCOC4(CCN(c5ccc(C(=O)N[C@H]6CC[C@H](Oc7ccc(C#N)c(Cl)c7)CC6)nn5)CC4)C3)cc1)=N[C@@H](Cc1ncco1)c1nnc(C)n1-2 [I-222],< 500 nM,500 to 1500 nM,< 500 nM,< 500 nM,–,–,–,–
Cc1sc2c(c1C)C(c1ccc(OC3CC4(CCN(c5ccc(C(=O)N[C@H]6CC[C@H](Oc7ccc(C#N)c(Cl)c7)CC6)nn5)CC4)C3)nc1)=N[C@@H](Cc1ncco1)c1nnc(C)n1-2 [I-223],500 to 1500 nM,500 to 1500 nM,< 500 nM,< 500 nM,–,–,–,–
Cc1sc2c(c1C)C(c1ccc(O[C@@H]3CCCN(c4ccc(C(=O)N[C@H]5CC[C@H](Oc6ccc(C#N)c(Cl)c6)CC5)nn4)C3)cc1)=N[C@@H](Cc1ncco1)c1nnc(C)n1-2 [I-224],< 500 nM,> 3000 nM,< 500 nM,< 500 nM,–,–,–,–
Cc1sc2c(c1C)C(c1ccc(C3CCC(N4CCCN(c5ccc(C(=O)N[C@H]6CC[C@H](Oc7ccc(C#N)c(Cl)c7)CC6)nn5)CC4)CC3)cc1)=N[C@H](Cc1ncco1)c1nnc(C)n1-2 (stereo partly shown) [I-225],< 500 nM,< 500 nM,< 500 nM,< 500 nM,–,–,–,–
Cc1sc2c(c1C)C(c1ccc(OC3CC4(CCN(c5ccc(C(=O)N[C@H]6CC[C@H](Oc7ccc(C#N)c(Cl)c7)CC6)nn5)CC4)C3)cc1)=N[C@@](C)(C(C)c1ncco1)c1nnc(C)n1-2 (stereo partly shown) [I-226],500 to 1500 nM,> 3000 nM,> 3000 nM,< 500 nM,–,–,–,–
Cc1sc2c(c1C)C(c1ccc(C#CC3CC4(C3)CN(c3ccc(C(=O)N[C@H]5CC[C@H](Oc6ccc(C#N)c(Cl)c6)CC5)nn3)C4)cc1)=N[C@H](Cc1ncco1)c1nnc(C)n1-2 [I-227],> 3000 nM,> 3000 nM,< 500 nM,< 500 nM,–,–,–,–
Cc1sc2c(c1C)C(c1ccc(CNC(=O)N3CCC(c4ccc(C(=O)N[C@H]5CC[C@H](Oc6ccc(C#N)c(Cl)c6)CC5)nn4)CC3)cc1)=N[C@@H](Cc1ncco1)c1nnc(C)n1-2 [I-228],< 500 nM,> 3000 nM,< 500 nM,< 500 nM,–,–,–,–
Cc1sc2c(c1C)C(c1ccc(CNC(=O)[C@H]3CCCN(c4ccc(C(=O)N[C@H]5CC[C@H](Oc6ccc(C#N)c(Cl)c6)CC5)nn4)C3)cc1)=N[C@@H](Cc1ncco1)c1nnc(C)n1-2 [I-229],1500 to 3000 nM,500 to 1500 nM,500 to 1500 nM,< 500 nM,–,–,–,–
Cc1sc2c(c1C)C(c1ccc(CNC(=O)[C@@H]3CCCN(c4ccc(C(=O)N[C@H]5CC[C@H](Oc6ccc(C#N)c(Cl)c6)CC5)nn4)C3)cc1)=N[C@@H](Cc1ncco1)c1nnc(C)n1-2 [I-230],1500 to 3000 nM,500 to 1500 nM,500 to 1500 nM,< 500 nM,–,–,–,–
Cc1sc2c(c1C)C(c1ccc(N3CCC(CNC(=O)c4ccc(C(=O)N[C@H]5CC[C@H](Oc6ccc(C#N)c(Cl)c6)CC5)nn4)CC3)cc1)=N[C@@H](Cc1ncco1)c1nnc(C)n1-2 [I-231],500 to 1500 nM,–,–,–,> 3000 nM,> 3000 nM,> 3000 nM,–
Cc1sc2c(c1C)C(c1ccc(N3CCC(CNC(=O)c4ccc(C(=O)N[C@H]5CC[C@H](Oc6ccc(C#N)c(Cl)c6)CC5)nn4)CC3)cc1)=N[C@@H](Cc1ncco1)c1nnc(C)n1-2 [I-232],–,–,–,–,500 to 1500 nM,< 500 nM,< 500 nM,< 500 nM
Cc1sc2c(c1C)C(c1ccc(CNC(=O)CNC(=O)c3ccc(C(=O)N[C@H]4CC[C@H](Oc5ccc(C#N)c(Cl)c5)CC4)nn3)cc1)=N[C@@H](Cc1ncco1)c1nnc(C)n1-2 [I-233],500 to 1500 nM,> 3000 nM,< 500 nM,< 500 nM,–,–,–,–
Cc1sc2c(c1C)C(c1ccc(C#C[C@H]3C[C@]4(CCCN(c5ccc(C(=O)N[C@H]6CC[C@H](Oc7ccc(C#N)c(Cl)c7)CC6)nn5)C4)C3)cc1)=N[C@@H](Cc1ncco1)c1nnc(C)n1-2 [I-234],< 500 nM,< 500 nM,< 500 nM,< 500 nM,–,–,–,–
Cc1sc2c(c1C)C(c1ccc(C#C[C@H]3C[C@@]4(CCCN(c5ccc(C(=O)N[C@H]6CC[C@H](Oc7ccc(C#N)c(Cl)c7)CC6)nn5)C4)C3)cc1)=N[C@@H](Cc1ncco1)c1nnc(C)n1-2 [I-235],< 500 nM,< 500 nM,< 500 nM,< 500 nM,–,–,–,–
Cc1sc2c(c1C)C(c1ccc([C@H]3CC[C@H](N4CCCN(c5ccc(C(=O)N[C@H]6CC[C@H](Oc7ccc(C#N)c(Cl)c7)CC6)nn5)CC4)CC3)cc1)=N[C@@H](Cc1ncco1)c1nnc(C)n1-2 [I-236],> 3000 nM,> 3000 nM,> 3000 nM,< 500 nM,–,–,–,–
